Experimental data: patent US10208067B2, “Compounds for treating spinal muscular atrophy” (Hoffmann-La Roche Inc., priority 2015, dated 2019)
Where two headings read alike, the source gives them in different places.

Columns and labels:
[1] = tested on: full length SMN2 minigene mRNA (HEK293H cells stably transfected with SMN2-A minigene); assay: RT-qPCR assay for SMN2 minigene pre-mRNA splicing in cultured cells; type: cell-based; details: Homo sapiens, HEK293-H, 24 hours
[2] = tested on: SMN protein in SMA patient fibroblast cells (GM03813); assay: SMN protein assay (HTRF) in cultured cells; type: cell-based; details: Homo sapiens, SMA Type 1 patient fibroblasts, 48 hours; for EC (1.5-fold): concentration producing 1.5 times SMN protein vs vehicle, read-out: EC1.5x SMN protein; for maximal fold induction: relative to vehicle control, read-out: max. fold increase of SMN protein
Description: The SMN HTRF (homogeneous time resolved fluorescence) assay is used to quantify the level of SMN protein in SMA patient fibroblast cells treated with test compounds. Materials used and respective sources are listed below in Table 4.
Cells are thawed and cultured in DMEM-10% FBS for 72 hours. Cells are trypsinized, counted and re-suspended to a concentration of 25,000 cells/mL in DMEM-10% FBS. The cell suspensions are plated at 5,000 cells per well in a 96 well microtiter plate and incubated for […]. […] 1 μL of test compound solution is transferred to cell-containing wells and cells are incubated for 48 hours in a cell culture incubator (37° C., 5% CO2, 100% relative humidity). Triplicate samples are set up for each test compound concentration. After 48 hours, the supernatant is removed from the wells and 25 μL of the RIPA lysis buffer, containing protease inhibitors, is added to the wells and incubated with shaking at room temperature for 1 hour. 25 μL of the diluent is added and then 35 μL of the resulting lysate is transferred to a 384-well plate, where each well contains 5 μL of the antibody solution (1:100 dilution of anti-SMN d2 and anti-SMN cryptate in SMN reconstitution buffer). The plate is centrifuged for 1 minute to bring the solution to the bottom of the wells, then incubated overnight at room temperature. Fluorescence for each well of the plate at 665 nm and 620 nm is measured on an EnVision multilabel plate reader (Perkin-Elmer).
The normalized fluorescence signal is calculated for each sample, Blank and vehicle control well by dividing the signal at 665 nm by the signal at 620 nm. Normalizing the signal accounts for possible fluorescence quenching due to the matrix effect of the lysate. The ΔF value (a measurement of SMN protein abundance as a percent value) for each sample well is calculated by subtracting the normalized average fluorescence for the Blank control wells from the normalized fluorescence for each sample well, then dividing this difference by the normalized average fluorescence for the Blank control wells and multiplying the resulting value by 100. The ΔF value for each sample well represents the SMN protein abundance from test compound-treated samples. The ΔF value for each sample well is divided by the ΔF value for the vehicle control wells to calculate the fold increase in SMN protein abundance relative to the vehicle control. Table 5 provides EC1-5× concentrations for SMN protein expression that was obtained from the 7-point concentration data generated according to the above procedure for particular compounds of the present invention.
Table 6 provides the maximum fold increase of SMN protein that was obtained from the 7-point concentration data generated according to the above procedure for particular compounds of the present invention

[3] = concentration increasing full length SMN2 minigene mRNA 1.5-fold vs vehicle, read-out: EC1.5x minigene
[4] = Table 3 (title: production of full length SMN2 minigene mRNA), read-out: EC1.5x SMN protein

Cc1nc2ccc(-c3cc(=O)n4cc(N5CCN[C@H](C)C5)ccc4n3)nn2n1 [Example 17, 7-[(3R)-3-methylpiperazin-1-yl]-2-(2-methyl-[1,2,4]triazolo[1,5-b]pyridazin-6-yl)pyrido[1,2-a]pyrimidin-4-one]
EC (1.5-fold) [1, 3]: 0.0191 µM
EC (1.5-fold) [2]: 0.0932 µM
maximal fold induction [2]: 1.82

Cc1nc2ccc(-c3cc(=O)n4cc(N5CCN(C)CC5)ccc4n3)nn2n1 [Example 39, 7-(4-methylpiperazin-1-yl)-2-(2-methyl-[1,2,4]triazolo[1,5-b]pyridazin-6-yl)pyrido[1,2-a]pyrimidin-4-one]
EC (1.5-fold) [1, 4]: 0.0272 µM
EC (1.5-fold) [2]: 0.09 µM
maximal fold induction [2]: 1.74

Cc1nc2ncc(-c3cc(=O)n4cc(N5CCNC6(CC6)C5)ccc4n3)cn2n1 [Example 13, 7-(4,7-diazaspiro[2.5]octan-7-yl)-2-(2-methyl-[1,2,4]triazolo[1,5-a]pyrimidin-6-yl)pyrido[1,2-a]pyrimidin-4-one]
EC (1.5-fold) [1, 3]: 2.55 µM
EC (1.5-fold) [2]: 14.1 µM
maximal fold induction [2]: 1.52

Cc1nc2ccc(-c3cc(=O)n4cc(N5CCNC(C)(C)C5)cc(C)c4n3)nn2n1 [Example 28, 7-(3,3-dimethylpiperazin-1-yl)-9-methyl-2-(2-methyl-[1,2,4]triazolo[1,5-b]pyridazin-6-yl)pyrido[1,2-a]pyrimidin-4-one]
EC (1.5-fold) [1, 4]: 0.0096 µM
EC (1.5-fold) [2]: 0.0353 µM
maximal fold induction [2]: 1.79

Cc1nc2ccc(-c3cc(=O)n4cc(N5CCN6CCC[C@@H]6C5)ccc4n3)nn2n1 [Example 36, 7-[(8aR)-3,4,6,7,8,8a-hexahydro-1H-pyrrolo[1,2-a]pyrazin-2-yl]-2-(2-methyl-[1,2,4]triazolo[1,5-b]pyridazin-6-yl)pyrido[1,2-a]pyrimidin-4-one]
EC (1.5-fold) [1, 4]: 0.0158 µM
EC (1.5-fold) [2]: 0.0997 µM
maximal fold induction [2]: 1.92

Cc1nc2ccc(-c3cc(=O)n4cc(N5C[C@H]6CN(C)C[C@H]6C5)cc(C)c4n3)nn2n1 [Example 29, 7-[(3aS,6aR)-2-methyl-1,3,3a,4,6,6a-hexahydropyrrolo[3,4-c]pyrrol-5-yl]-9-methyl-2-(2-methyl-[1,2,4]triazolo[1,5-b]pyridazin-6-yl)pyrido[1,2-a]pyrimidin-4-one]
EC (1.5-fold) [1, 4]: 0.0008 µM
EC (1.5-fold) [2]: 0.0077 µM
maximal fold induction [2]: 1.77

Cc1nc2ncc(-c3cc(=O)n4cc(N5C[C@@H](C)N[C@@H](C)C5)ccc4n3)cn2n1 [Example 2, 7-[(3R,5S)-3,5-dimethylpiperazin-1-yl]-2-(2-methyl-[1,2,4]triazolo[1,5-a]pyrimidin-6-yl)pyrido[1,2-a]pyrimidin-4-one]
EC (1.5-fold) [1, 3]: 0.067 µM
EC (1.5-fold) [2]: 0.508 µM
maximal fold induction [2]: 1.93

Cc1nc2ncc(-c3cc(=O)n4cc(N5CC[C@@H](N(C)C)C5)ccc4n3)cn2n1 [Example 3, 7-[(3R)-3-(dimethylamino)pyrrolidin-1-yl]-2-(2-methyl-[1,2,4]triazolo[1,5-a]pyrimidin-6-yl)pyrido[1,2-a]pyrimidin-4-one]
EC (1.5-fold) [1, 3]: 0.0452 µM
EC (1.5-fold) [2]: 0.52 µM
maximal fold induction [2]: 1.79

Cc1nc2ccc(-c3cc(=O)n4cc(N5CC6CN(C)CC6C5)ccc4n3)nn2n1 (stereo not drawn) [Example 33, 7-(2-methyl-1,3,3a,4,6,6a-hexahydropyrrolo[3,4-c]pyrrol-5-yl)-2-(2-methyl-[1,2,4]triazolo[1,5-b]pyridazin-6-yl)pyrido[1,2-a]pyrimidin-4-one]
EC (1.5-fold) [1, 4]: 0.0038 µM
EC (1.5-fold) [2]: 0.0151 µM
maximal fold induction [2]: 1.67

Cc1nc2ccc(-c3cc(=O)n4cc(N5C[C@@H](C)N[C@@H](C)C5)ccc4n3)nn2n1 [Example 22, 7-[(3R,5S)-3,5-dimethylpiperazin-1-yl]-2-(2-methyl-[1,2,4]triazolo[1,5-b]pyridazin-6-yl)pyrido[1,2-a]pyrimidin-4-one]
EC (1.5-fold) [1, 4]: 0.0434 µM
EC (1.5-fold) [2]: 0.228 µM
maximal fold induction [2]: 1.76

Cc1nc2ccc(-c3cc(=O)n4cc(N5CCN[C@@H](C)C5)cc(C)c4n3)nn2n1 [Example 45, 9-methyl-7-[(3S)-3-methylpiperazin-1-yl]-2-(2-methyl-[1,2,4]triazolo[1,5-b]pyridazin-6-yl)pyrido[1,2-a]pyrimidin-4-one]
EC (1.5-fold) [1, 4]: 0.0008 µM
EC (1.5-fold) [2]: 0.009 µM
maximal fold induction [2]: 2.04

Cc1nc2ccc(-c3cc(=O)n4cc(N5CC6(CCNC6)C5)cc(C)c4n3)nn2n1 [Example 48, 7-(2,7-diazaspiro[3.4]octan-2-yl)-9-methyl-2-(2-methyl-[1,2,4]triazolo[1,5-b]pyridazin-6-yl)pyrido[1,2-a]pyrimidin-4-one]
EC (1.5-fold) [1, 4]: 0.168 µM
EC (1.5-fold) [2]: 1.32 µM
maximal fold induction [2]: 1.68

CCN1CCN(c2cc(C)c3nc(-c4ccc5nc(C)nn5n4)cc(=O)n3c2)CC1 [Example 32, 7-(4-ethylpiperazin-1-yl)-9-methyl-2-(2-methyl-[1,2,4]triazolo[1,5-b]pyridazin-6-yl)pyrido[1,2-a]pyrimidin-4-one]
EC (1.5-fold) [1, 4]: 0.0038 µM
EC (1.5-fold) [2]: 0.0725 µM
maximal fold induction [2]: 1.97

Cc1nc2ncc(-c3cc(=O)n4cc(N5CCC(CN6CCCC6)CC5)ccc4n3)cn2n1 [Example 12, 7-[4-(pyrrolidin-1-ylmethyl)-1-piperidyl]-2-(2-methyl-[1,2,4]triazolo[1,5-a]pyrimidin-6-yl)-pyrido[1,2-a]pyrimidin-4-one]
EC (1.5-fold) [1, 3]: 0.161 µM
EC (1.5-fold) [2]: > 31.6 µM
maximal fold induction [2]: 1.36

Cc1nc2ncc(-c3cc(=O)n4cc(N5CCN(C)CC5)ccc4n3)cn2n1 [Example 23, 7-(4-methylpiperazin-1-yl)-2-(2-methyl-[1,2,4]triazolo[1,5-a]pyrimidin-6-yl)pyrido[1,2-a]pyrimidin-4-one]
EC (1.5-fold) [1, 4]: 0.0952 µM
EC (1.5-fold) [2]: 0.477 µM
maximal fold induction [2]: 1.68

Cc1nc2ccc(-c3cc(=O)n4cc(N5CCN(C)CC5)cc(C)c4n3)nn2n1 [Example 27, 9-methyl-7-(4-methylpiperazin-1-yl)-2-(2-methyl-[1,2,4]triazolo[1,5-b]pyridazin-6-yl)pyrido[1,2-a]pyrimidin-4-one]
EC (1.5-fold) [1, 4]: 0.014 µM
EC (1.5-fold) [2]: 0.0347 µM
maximal fold induction [2]: 1.74

Cc1nc2ncc(-c3cc(=O)n4cc(N5CCN(C6CNC6)CC5)ccc4n3)cn2n1 [Example 10, 7-[4-(azetidin-3-yl)piperazin-1-yl]-2-(2-methyl-[1,2,4]triazolo[1,5-a]pyrimidin-6-yl)pyrido[1,2-a]pyrimidin-4-one]
EC (1.5-fold) [1, 3]: 5.93 µM
EC (1.5-fold) [2]: 30 µM
maximal fold induction [2]: 1.5

CCN1CCN(c2ccc3nc(-c4ccc5nc(C)nn5n4)cc(=O)n3c2)CC1 [Example 43, 7-(4-ethylpiperazin-1-yl)-2-(2-methyl-[1,2,4]triazolo[1,5-b]pyridazin-6-yl)pyrido[1,2-a]pyrimidin-4-one]
EC (1.5-fold) [1, 4]: 0.0328 µM
EC (1.5-fold) [2]: 0.0562 µM
maximal fold induction [2]: 2.02

Cc1nc2ccc(-c3cc(=O)n4cc(N5CC[C@@H](N(C)C)C5)ccc4n3)nn2n1 [Example 41, 7-[(3R)-3-(dimethylamino)pyrrolidin-1-yl]-2-(2-methyl-[1,2,4]triazolo[1,5-b]pyridazin-6-yl)pyrido[1,2-a]pyrimidin-4-one]
EC (1.5-fold) [1, 4]: 0.163 µM
EC (1.5-fold) [2]: 0.207 µM
maximal fold induction [2]: 1.75
